Measured values: PubChem BioAssay (NCI)
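Assay format: 96-well plates, 48-hour exposure. TGI: concentration producing complete growth inhibition.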

Assays:
Assay in all cases: NCI tumour cell line growth inhibition, 48 h
786-0 renal = tested on: 786-0 renal
A498 renal = tested on: A498 renal
A549 NSCLC = tested on: A549 NSCLC
ACHN renal = tested on: ACHN renal
BT-549 breast = tested on: BT-549 breast
CAKI-1 renal = tested on: CAKI-1 renal
CCRF-CEM leukemia = tested on: CCRF-CEM leukemia
COLO 205 colon = tested on: COLO 205 colon
DU-145 prostate = tested on: DU-145 prostate
EKVX NSCLC = tested on: EKVX NSCLC
HCC-2998 colon = tested on: HCC-2998 colon
HCT-116 colon = tested on: HCT-116 colon
HCT-15 colon = tested on: HCT-15 colon
HL-60(TB) leukemia = tested on: HL-60(TB) leukemia
HOP-62 NSCLC = tested on: HOP-62 NSCLC
HOP-92 NSCLC = tested on: HOP-92 NSCLC
HS 578T breast = tested on: HS 578T breast
HT29 colon = tested on: HT29 colon
IGROV1 ovarian = tested on: IGROV1 ovarian
K-562 leukemia = tested on: K-562 leukemia
KM12 colon = tested on: KM12 colon
LOX IMVI melanoma = tested on: LOX IMVI melanoma
M14 melanoma = tested on: M14 melanoma
MALME-3M melanoma = tested on: MALME-3M melanoma
MCF7 breast = tested on: MCF7 breast
MDA-MB-231 breast = tested on: MDA-MB-231 breast
MDA-MB-435 = tested on: MDA-MB-435
MDA-N = tested on: MDA-N
MOLT-4 leukemia = tested on: MOLT-4 leukemia
NCI-H23 lung = tested on: NCI-H23 lung
NCI-H460 lung = tested on: NCI-H460 lung
NCI/ADR-RES ovarian = tested on: NCI/ADR-RES ovarian
OVCAR-3 ovarian = tested on: OVCAR-3 ovarian
OVCAR-4 ovarian = tested on: OVCAR-4 ovarian
OVCAR-5 ovarian = tested on: OVCAR-5 ovarian
OVCAR-8 ovarian = tested on: OVCAR-8 ovarian
PC-3 prostate = tested on: PC-3 prostate
RPMI-8226 leukemia = tested on: RPMI-8226 leukemia
RXF 393 renal = tested on: RXF 393 renal
SF-268 CNS = tested on: SF-268 CNS
SF-295 CNS = tested on: SF-295 CNS
SF-539 CNS = tested on: SF-539 CNS
SK-MEL-2 melanoma = tested on: SK-MEL-2 melanoma
SK-MEL-28 melanoma = tested on: SK-MEL-28 melanoma
SK-MEL-5 melanoma = tested on: SK-MEL-5 melanoma
SK-OV-3 ovarian = tested on: SK-OV-3 ovarian
SN12C renal = tested on: SN12C renal
SNB-19 CNS = tested on: SNB-19 CNS
SNB-75 CNS = tested on: SNB-75 CNS
SR leukemia = tested on: SR leukemia
SW-620 colon = tested on: SW-620 colon
T-47D breast = tested on: T-47D breast
TK-10 renal = tested on: TK-10 renal
U251 CNS = tested on: U251 CNS
UACC-257 melanoma = tested on: UACC-257 melanoma
UACC-62 melanoma = tested on: UACC-62 melanoma
UO-31 renal = tested on: UO-31 renal
NCI-H522 lung = tested on: NCI-H522 lung
NCI-H226 lung = tested on: NCI-H226 lung

Cc1ccc(O)c(C2=CC3=NNC(=O)C3C(c3cccc(Cl)c3)C2)c1 (configuration not stated)
TGI (786-0 renal): > 100 µM | TGI (A498 renal): > 100 µM | TGI (A549 NSCLC): > 100 µM | TGI (ACHN renal): > 100 µM | TGI (BT-549 breast): 78.7 µM | TGI (CAKI-1 renal): > 100 µM | TGI (CCRF-CEM leukemia): > 100 µM | TGI (COLO 205 colon): 30.4 µM | TGI (DU-145 prostate): > 100 µM | TGI (EKVX NSCLC): > 100 µM | TGI (HCC-2998 colon): 44.5 µM | TGI (HCT-116 colon): > 100 µM | TGI (HCT-15 colon): > 100 µM | TGI (HL-60(TB) leukemia): > 100 µM | TGI (HOP-62 NSCLC): > 100 µM | TGI (HOP-92 NSCLC): 96.1 µM | TGI (HS 578T breast): > 100 µM | TGI (HT29 colon): 63.9 µM | TGI (IGROV1 ovarian): > 100 µM | TGI (K-562 leukemia): > 100 µM | TGI (KM12 colon): 55.1 µM | TGI (LOX IMVI melanoma): 49.1 µM | TGI (M14 melanoma): > 100 µM | TGI (MALME-3M melanoma): 94 µM | TGI (MCF7 breast): 47.1 µM | TGI (MDA-MB-231 breast): > 100 µM | TGI (MDA-MB-435): > 100 µM | TGI (MDA-N): 92.2 µM | TGI (MOLT-4 leukemia): > 100 µM | TGI (NCI-H23 lung): > 100 µM | TGI (NCI-H460 lung): > 100 µM | TGI (NCI/ADR-RES ovarian): > 100 µM | TGI (OVCAR-3 ovarian): 84.1 µM | TGI (OVCAR-4 ovarian): 44.3 µM | TGI (OVCAR-5 ovarian): > 100 µM | TGI (OVCAR-8 ovarian): 77.3 µM | TGI (PC-3 prostate): > 100 µM | TGI (RPMI-8226 leukemia): 75.9 µM | TGI (RXF 393 renal): 9.62 µM | TGI (SF-268 CNS): > 100 µM | TGI (SF-295 CNS): > 100 µM | TGI (SF-539 CNS): > 100 µM | TGI (SK-MEL-2 melanoma): 86.2 µM | TGI (SK-MEL-28 melanoma): > 100 µM | TGI (SK-MEL-5 melanoma): > 100 µM | TGI (SK-OV-3 ovarian): > 100 µM | TGI (SN12C renal): > 100 µM | TGI (SNB-19 CNS): > 100 µM | TGI (SNB-75 CNS): 76.2 µM | TGI (SR leukemia): > 100 µM | TGI (SW-620 colon): > 100 µM | TGI (T-47D breast): > 100 µM | TGI (TK-10 renal): 57.5 µM | TGI (U251 CNS): > 100 µM | TGI (UACC-257 melanoma): > 100 µM | TGI (UACC-62 melanoma): 86.6 µM | TGI (UO-31 renal): > 100 µM

CN=C(Nc1ccc(OC)c2ccccc12)SC
TGI (786-0 renal): > 10 µM | TGI (A549 NSCLC): > 10 µM | TGI (ACHN renal): > 10 µM | TGI (BT-549 breast): > 10 µM | TGI (CAKI-1 renal): > 10 µM | TGI (CCRF-CEM leukemia): > 10 µM | TGI (COLO 205 colon): > 10 µM | TGI (DU-145 prostate): > 10 µM | TGI (HCC-2998 colon): > 10 µM | TGI (HCT-116 colon): > 10 µM | TGI (HCT-15 colon): > 10 µM | TGI (HL-60(TB) leukemia): > 10 µM | TGI (HOP-62 NSCLC): > 10 µM | TGI (HOP-92 NSCLC): > 10 µM | TGI (HS 578T breast): > 10 µM | TGI (HT29 colon): > 10 µM | TGI (IGROV1 ovarian): > 10 µM | TGI (K-562 leukemia): > 10 µM | TGI (KM12 colon): > 10 µM | TGI (LOX IMVI melanoma): > 10 µM | TGI (M14 melanoma): > 10 µM | TGI (MALME-3M melanoma): > 10 µM | TGI (MCF7 breast): > 10 µM | TGI (MDA-MB-231 breast): > 10 µM | TGI (MDA-MB-435): > 10 µM | TGI (MDA-N): > 10 µM | TGI (MOLT-4 leukemia): > 10 µM | TGI (NCI-H23 lung): > 10 µM | TGI (NCI-H522 lung): > 10 µM | TGI (NCI/ADR-RES ovarian): > 10 µM | TGI (OVCAR-3 ovarian): > 10 µM | TGI (OVCAR-4 ovarian): > 10 µM | TGI (OVCAR-5 ovarian): > 10 µM | TGI (OVCAR-8 ovarian): > 10 µM | TGI (PC-3 prostate): > 10 µM | TGI (RPMI-8226 leukemia): > 10 µM | TGI (SF-268 CNS): > 10 µM | TGI (SF-295 CNS): > 10 µM | TGI (SF-539 CNS): > 10 µM | TGI (SK-MEL-28 melanoma): > 10 µM | TGI (SK-MEL-5 melanoma): > 10 µM | TGI (SK-OV-3 ovarian): > 10 µM | TGI (SN12C renal): > 10 µM | TGI (SNB-19 CNS): > 10 µM | TGI (SNB-75 CNS): > 10 µM | TGI (SR leukemia): > 10 µM | TGI (SW-620 colon): > 10 µM | TGI (T-47D breast): > 10 µM | TGI (TK-10 renal): > 10 µM | TGI (U251 CNS): > 10 µM | TGI (UACC-257 melanoma): > 10 µM | TGI (UACC-62 melanoma): > 10 µM

Nc1[nH]c(=O)nc2snnc12
TGI (786-0 renal): > 100 µM | TGI (A549 NSCLC): > 100 µM | TGI (ACHN renal): > 100 µM | TGI (BT-549 breast): > 100 µM | TGI (CAKI-1 renal): > 28.8 µM | TGI (CCRF-CEM leukemia): > 100 µM | TGI (COLO 205 colon): > 100 µM | TGI (DU-145 prostate): > 100 µM | TGI (EKVX NSCLC): > 100 µM | TGI (HCC-2998 colon): > 100 µM | TGI (HCT-116 colon): > 100 µM | TGI (HCT-15 colon): > 100 µM | TGI (HL-60(TB) leukemia): > 100 µM | TGI (HOP-62 NSCLC): > 100 µM | TGI (HOP-92 NSCLC): > 100 µM | TGI (HS 578T breast): > 100 µM | TGI (HT29 colon): > 100 µM | TGI (IGROV1 ovarian): > 100 µM | TGI (K-562 leukemia): > 39.7 µM | TGI (KM12 colon): > 100 µM | TGI (LOX IMVI melanoma): 65.2 µM | TGI (M14 melanoma): > 100 µM | TGI (MALME-3M melanoma): > 100 µM | TGI (MCF7 breast): > 100 µM | TGI (MDA-MB-231 breast): > 100 µM | TGI (MDA-MB-435): > 100 µM | TGI (MDA-N): > 100 µM | TGI (MOLT-4 leukemia): > 100 µM | TGI (NCI-H226 lung): > 100 µM | TGI (NCI-H23 lung): > 100 µM | TGI (NCI-H460 lung): > 100 µM | TGI (NCI-H522 lung): > 100 µM | TGI (NCI/ADR-RES ovarian): > 100 µM | TGI (OVCAR-3 ovarian): > 100 µM | TGI (OVCAR-4 ovarian): > 100 µM | TGI (OVCAR-5 ovarian): > 100 µM | TGI (OVCAR-8 ovarian): > 100 µM | TGI (PC-3 prostate): > 100 µM | TGI (RPMI-8226 leukemia): > 100 µM | TGI (RXF 393 renal): > 26.8 µM | TGI (SF-268 CNS): > 51.7 µM | TGI (SF-295 CNS): > 100 µM | TGI (SF-539 CNS): > 100 µM | TGI (SK-MEL-2 melanoma): 14.4 µM | TGI (SK-MEL-28 melanoma): 96.9 µM | TGI (SK-MEL-5 melanoma): > 100 µM | TGI (SK-OV-3 ovarian): > 100 µM | TGI (SN12C renal): > 100 µM | TGI (SNB-19 CNS): > 100 µM | TGI (SNB-75 CNS): > 100 µM | TGI (SR leukemia): > 100 µM | TGI (SW-620 colon): > 100 µM | TGI (T-47D breast): > 100 µM | TGI (TK-10 renal): > 83.9 µM | TGI (U251 CNS): > 100 µM | TGI (UACC-257 melanoma): > 100 µM | TGI (UACC-62 melanoma): > 78.3 µM | TGI (UO-31 renal): > 31.2 µM
